Experimental data reported in US8404857B2, “α-crystalline form of carbabenzpyride” (Farmak International Holding GmbH, priority 2010, dated 2013).
Where two headings read alike, the source gives them in different places. Marks after values point to notes of the source that are not given here.

How the values were obtained:
blood monocytes = experiment: Blood monocytes level (complete blood counts) of volunteers; type: in vivo, human; conditions: throughout the study; control group decreased by V3 and V4
Excerpt: The results of investigating FAV00A effect of body interferon status correlate with the data collected during statistical processing of volunteers' complete blood counts. […] This fact is indicative of limitation of viral infection immunosuppressive effect on cellular immunity responses in FAV00A treatment group.

[1] = system: Human cytomegalovirus Hi91; experiment: Virus yield reduction assay, Human cytomegalovirus Hi91; type: cell-based; conditions: HFF, MOI 0.02, 5 days
Human metapneumovirus = experiment: Virus yield reduction assay, Human metapneumovirus; type: cell-based; conditions: MK2 cells, MOI 0.1, 8 days
Adenovirus 3 = experiment: Virus yield reduction assay, Adenovirus 3; type: cell-based; conditions: A549 cells, MOI 0.05, 4 days
[2] = system: Influenza A strain California (H3N2); type: cell-based; conditions: Table 9, NBL-2 cells, MOI 0.001, 24 h
Enterovirus 71 = experiment: Virus yield reduction assay, Enterovirus 71; type: cell-based; conditions: HFF, MOI 0.1, 3 days
IFN-α = experiment: Circulating IFN-α levels in blood serum of volunteers with acute respiratory infection; type: in vivo, human; conditions: for IFN-α Mean value / IFN-α Median: blood serum
Excerpt: (§1) Increase of IFN-α levels was also observed in patients treated with Placebo, yet, this growth was less intensive than in FAV00A group (Table 22).

Echo virus 30 = experiment: Virus yield reduction assay, Echo virus 30; type: cell-based; conditions: HFF, MOI 0.01, 3 days
[3] = system: Influenza A strain New Caledonia (H1N1); type: cell-based; conditions: NBL-2 cells, MOI 0.01, 24 h
Echo virus 11 = experiment: Virus yield reduction assay, Echo virus 11; type: cell-based; conditions: HFF, MOI 0.005, 3 days
IFN-γ = experiment: Circulating IFN-γ levels in blood serum of volunteers with acute respiratory infection; type: in vivo, human; conditions: for IFN-γ Mean value / IFN-γ Median: blood serum
Excerpt: as §1

[4] = system: Human cytomegalovirus AD169; experiment: Virus yield reduction assay, Human cytomegalovirus AD169; type: cell-based; conditions: HFF, MOI 0.02, 5 days
[5] = system: Influenza A strain Victoria (H3N2); experiment: Virus yield reduction assay, Influenza A Victoria (H3N2); type: cell-based, Influenza A H3N2 (strain Victoria/3/75); conditions: Table 10, NBL-2 cells, MOI 0.01, 24 h
Adenovirus 5 = experiment: Virus yield reduction assay, Adenovirus 5; type: cell-based; conditions: A549 cells, MOI 0.05, 4 days
Coxsackie virus A9 = experiment: Virus yield reduction assay, Coxsackie virus A9; type: cell-based; conditions: HFF, MOI 0.005, 3 days
[6] = 7-th day of the drug intake (Visit V3)
[7] = Visit V3 (7-th day of drug intake)
[8] = Table 8, 400 μg with 45 minutes pre-incubation
[9] = Table 8, 400 μg without pre-incubation

C[n+]1ccc(C(=O)NCc2ccccc2)cc1 [FAV00A, carbabenzpyride]
Change of blood monocytes level (blood monocytes): No considerable decrease
% titre reduction in comparison to virus control ([1]; FAV00A 125 μg/ml): (24.9%)
% titre reduction in comparison to virus control ([1]; FAV00A 250 μg/ml): (86.0%)
Virus titre ([1]; FAV00A 250 μg/ml): 5.2 × 10^3 TCID50/ml
% titre reduction in comparison to virus control ([1]; FAV00A 500 μg/ml): (93.5%)^1
Virus titre ([1]; FAV00A 500 μg/ml): 2.4 × 10^3 TCID50/ml
% titre reduction in comparison to virus control (Human metapneumovirus; FAV00A 125 μg/ml): (88.5%)
Virus titre (Human metapneumovirus; FAV00A 125 μg/ml): 4.0 × 10^4 TCID50/ml
Virus titre (Human metapneumovirus; FAV00A 250 μg/ml): 5.4 × 10^4 TCID50/ml
% titre reduction in comparison to virus control (Human metapneumovirus; FAV00A 500 μg/ml): (95.6%)^1
Virus titre (Human metapneumovirus; FAV00A 500 μg/ml): 2.0 × 10^3 TCID50/ml
Virus titre (Adenovirus 3; FAV00A 12.5 μg/ml): 7.2 × 10^7 TCID50/ml
% titre reduction in comparison to virus control (Adenovirus 3; FAV00A 25 μg/ml): (11.3%)
Virus titre (Adenovirus 3; FAV00A 25 μg/ml): 5.4 × 10^7 TCID50/ml
% titre reduction in comparison to virus control (Adenovirus 3; FAV00A 50 μg/ml): (43.5%)^1
Virus titre (Adenovirus 3; FAV00A 50 μg/ml): 3.4 × 10^7 TCID50/ml
% virus yield relative to control ([2]; 400 μg): 76%
Fold reduction ([2]; 400 μg): 1.32
Titer (TCFD50/ml) ([2]; 400 μg): 2.25 * 10^4 TCFD50/ml
% virus yield relative to control ([2]; 800 μg): 61%
Fold reduction ([2]; 800 μg): 1.64
Titer (TCFD50/ml) ([2]; 800 μg): 1.80 * 10^4 TCFD50/ml
Virus titre (Enterovirus 71; FAV00A 50 μg/ml): 5.4 × 10^3 TCID50/ml
% titre reduction in comparison to virus control (Enterovirus 71; FAV00A 100 μg/ml): (83.6%)
Virus titre (Enterovirus 71; FAV00A 100 μg/ml): 6.5 × 10^2 TCID50/ml
% titre reduction in comparison to virus control (Enterovirus 71; FAV00A 200 μg/ml): (97.6%)^1
Virus titre (Enterovirus 71; FAV00A 200 μg/ml): 9.6 × 10^1 TCID50/ml
IFN-α levels versus the baseline values and Placebo group (IFN-α; [6]): Significant elevation
IFN-α Mean value (IFN-α; Visit V1 (baseline)): 22.290
IFN-α Median (IFN-α; Visit V1 (baseline)): 23.7
IFN-α Mean value (IFN-α; [7]): 37.563*
IFN-α Median (IFN-α; [7]): 37.4*
IFN-α Mean value (IFN-α; Visit V4): 30.072*
IFN-α Median (IFN-α; Visit V4): 30.55*
Virus titre (Echo virus 30; FAV00A 25 μg/ml): 1.2 × 10^8 TCID50/ml
% titre reduction in comparison to virus control (Echo virus 30; FAV00A 50 μg/ml): (17.0%)
Virus titre (Echo virus 30; FAV00A 50 μg/ml): 7.9 × 10^7 TCID50/ml
% titre reduction in comparison to virus control (Echo virus 30; FAV00A 100 μg/ml): (68.3%)^1
Virus titre (Echo virus 30; FAV00A 100 μg/ml): 3.0 × 10^7 TCID50/ml
% virus yield relative to control [3, 8]: 52%
Fold reduction [3, 8]: 1.92
Titer (TCID50/ml) [3, 8]: 1.10 * 10^6 TCID50/ml
% virus yield relative to control [3, 9]: 31%
Fold reduction [3, 9]: 3.23
Titer (TCID50/ml) [3, 9]: 6.56 * 10^5 TCID50/ml
% virus yield relative to control ([3]; Table 11a, 400 μg): 32%
Fold reduction ([3]; Table 11a, 400 μg): 3.13
Titer (TCID50/ml) ([3]; Table 11a, 400 μg): 6.81 * 10^3 TCID50/ml
% virus yield relative to control ([3]; Table 12b, 800 μg): 28%
Fold reduction ([3]; Table 12b, 800 μg): 3.57
Titer (TCID50/ml) ([3]; Table 12b, 800 μg): 2.70 * 10^6 TCID50/ml
% titre reduction in comparison to virus control (Echo virus 11; FAV00A 62.5 μg/ml): (41.8%)
Virus titre (Echo virus 11; FAV00A 62.5 μg/ml): 1.8 × 10^8 TCID50/ml
% titre reduction in comparison to virus control (Echo virus 11; FAV00A 125 μg/ml): (36.4%)
Virus titre (Echo virus 11; FAV00A 125 μg/ml): 1.9 × 10^8 TCID50/ml
% titre reduction in comparison to virus control (Echo virus 11; FAV00A 250 μg/ml): (79.9%)^1
Virus titre (Echo virus 11; FAV00A 250 μg/ml): 6.1 × 10^7 TCID50/ml
IFN-γ levels versus the baseline values and Placebo group (IFN-γ; [6]): Significant elevation
IFN-γ Mean value (IFN-γ; Visit V1 (baseline)): 33.168
IFN-γ Median (IFN-γ; Visit V1 (baseline)): 33.25
IFN-γ Mean value (IFN-γ; [7]): 44.670*
IFN-γ Median (IFN-γ; [7]): 45.85*
IFN-γ Mean value (IFN-γ; Visit V4): 41.313*
IFN-γ Median (IFN-γ; Visit V4): 40.1*
Virus titre ([4]; FAV00A 125 μg/ml): 2.2 × 10^5 TCID50/ml
Virus titre ([4]; FAV00A 250 μg/ml): 1.0 × 10^5 TCID50/ml
% titre reduction in comparison to virus control ([4]; FAV00A 500 μg/ml): (41.1%)^1
Virus titre ([4]; FAV00A 500 μg/ml): 5.3 × 10^4 TCID50/ml
% virus yield relative to control ([5]; 400 μg): 41%
Fold reduction ([5]; 400 μg): 2.44
Titer (TCID50/ml) ([5]; 400 μg): 1.20 * 10^6 TCID50/ml
% virus yield relative to control ([5]; 800 μg): 27%
Fold reduction ([5]; 800 μg): 3.70
Titer (TCID50/ml) ([5]; 800 μg): 7.75 * 10^5 TCID50/ml
Virus titre (Adenovirus 5; FAV00A 12.5 μg/ml): 7.0 × 10^8 TCID50/ml
% titre reduction in comparison to virus control (Adenovirus 5; FAV00A 25 μg/ml): (43.7%)
Virus titre (Adenovirus 5; FAV00A 25 μg/ml): 3.0 × 10^8 TCID50/ml
% titre reduction in comparison to virus control (Adenovirus 5; FAV00A 50 μg/ml): (68.4%)^1
Virus titre (Adenovirus 5; FAV00A 50 μg/ml): 1.7 × 10^8 TCID50/ml
% titre reduction in comparison to virus control (Coxsackie virus A9; FAV00A 12.5 μg/ml): (45.3%)
Virus titre (Coxsackie virus A9; FAV00A 12.5 μg/ml): 1.7 × 10^4 TCID50/ml
% titre reduction in comparison to virus control (Coxsackie virus A9; FAV00A 25 μg/ml): (45.7%)
Virus titre (Coxsackie virus A9; FAV00A 25 μg/ml): 1.7 × 10^5 TCID50/ml
% titre reduction in comparison to virus control (Coxsackie virus A9; FAV00A 50 μg/ml): (65.3%)^1
Virus titre (Coxsackie virus A9; FAV00A 50 μg/ml): 1.1 × 10^5 TCID50/ml

CC(=O)N[C@H]1[C@H]([C@H](O)[C@H](O)CO)OC(C(=O)O)=C[C@@H]1N=C(N)N [Zanamivir, reference compound]
% virus yield relative to control ([2]; 100 ng): 0.4%
Fold reduction ([2]; 100 ng): 250
Titer (TCFD50/ml) ([2]; 100 ng): 1.18 * 10^2 TCFD50/ml
% virus yield relative to control ([3]; Table 8, 10 ng): 23%
Fold reduction ([3]; Table 8, 10 ng): 4.35
Titer (TCID50/ml) ([3]; Table 8, 10 ng): 4.85 * 10^5 TCID50/ml
% virus yield relative to control ([3]; Table 11a, 100 ng): 3%
Fold reduction ([3]; Table 11a, 100 ng): 33.33
Titer (TCID50/ml) ([3]; Table 11a, 100 ng): 7.00 * 10^4 TCID50/ml
% virus yield relative to control ([3]; Table 12b, 100 ng): 15%
Fold reduction ([3]; Table 12b, 100 ng): 6.67
Titer (TCID50/ml) ([3]; Table 12b, 100 ng): 1.42 * 10^6 TCID50/ml
% virus yield relative to control ([5]; 100 ng): 0.02%
Fold reduction ([5]; 100 ng): 5000
Titer (TCID50/ml) ([5]; 100 ng): 7.05 * 10^2 TCID50/ml
